Ten compounds from patent publication US3983156A, “Substituted ω-nitroacetophenones” (Beecham Group Limited, priority 1973, dated 1976) can be followed below.

This assay deals with rat PCA response. Description: Rat Passive Cutaneous Anaphylaxis (PCA) test. As to conditions: sc, subcutaneous. The format is in vivo, rat (Wistar). Here is the method: Some of the ω-nitroacetophenones prepared in the preceding Examples were submitted for biological testing. The test system was the Rat Passive Cutaneous Anaphylaxis (PCA) test described below in (ii).
i. Serum containing heat labile homocytotropic antibody was raised in rats by a method similar to that used by Mota. (I. Mota Immunology 1964, 7, 681).
Male Wistar rats of 250-300 g, were injected intraperitoneally with 0.5 ml of Bordatella pertussis vaccine (containing 4 × 10^10 dead organism per ml) and subcutaneously with 0.5 ml of an emulsion of 100 mg. of ovalbumin in 2 ml of saline and 3 ml of incomplete Freunds' adjuvant. Rats were bled by cardiac puncture on day 18, the blood was pooled and separated and serum stored at -20° and thawed only once before use.
ii. The P.C.A. test was similar to that described by Ovary and Bier (A. Ovary and O. E. Bier, Prod. Soc. Exp. Biol. Med. 1952, 81, 584) and Goose and Blair (J. Goose and AM.J. N Blair, Immunology 1969, 16, 769)
0.1 ml of each of six twofold serial dilutions of the serum in 0.9% saline were injected intradermally into separate sites on the shaved dorsal surface of 250-350 g Wistar rats. 72 hours later the animals were challlenged by i.v. injection of 0.3 ml of 1% ovalbumin mixed with 0.1 ml of a 5% solution of pontamine sky blue dye both in isotonic saline buffered with pH. 7.2 Sorenson buffer (P.B.S.). The rats were killed after 20 minutes and the diameter of the blue wheals at the antibody injection sites were measured. The starting dilution of the serum was adjusted so that there was no response, after challenge, at the site of injection of the highest dilution and a maximum response at the two or three lowest dilutions. Typically, six twofold serial dilutions of the serum from 1/4 to 1/128 were used.
Compounds were tested for their ability to reduce the diameter of the wheals at the injection sites of dilutions of antibody which on all the controls have less than maximum response. Amounts of the compounds were administered to rats by subcutaneous injection, into the nuchal region, of a solution of the compound in P.B.S. or as a suspension in 1% methyl cellulose, each amount to a test group of six animals at a specified time prior to intravenous challenge with ovalbumin. THe diameters of the blue wheals which developed on the tests group of aimals were compared with those on a control group of six animals treated in the same way as the test group, but which; had received an equivalent subcutaneous injection of the carrier fluid not containing the same volume of the compound under test.
% Inhibition of P.C.A. = 100 (1 - a/b)
a = The mean of the sum of the diameters of the wheals produced in the test group of animals at those antibody sites where all the control group of animals gave less than maximum response.
b = The mean of the sum of diameters of the wheals produced in the control group of amimals at those antibody sites where all the animals in the group gave less than maximum response.
The preferred method of administration was a solution of the test compound dissolved in pH 7.2 buffer and neutralised with sodium bicarbonate. For those compounds having insoluble sodium salts, the salts were isolated by reaction of the free nitro compound with 2.5N sodium hydroxide and the filtered sodium salt washed free of alkali with water. The dried salts were then administered as a suspension in 1% methyl cellulose.

Regarding `Cc1cc(C(=O)C[N+](=O)[O-])c(C(=O)OC(C)C)cc1C` [Example 6, 2-Isopropoxycarbonyl-4,5-dimethyl-ω-nitroacetophenone], the inhibition in vivo at 25 mg/kg is, setting by setting: (0 mins prior to challenge) 16%; (30 mins prior to challenge) 20%. Besides, the inhibition in vivo at 100 mg/kg runs as follows: (0 mins prior to challenge) 30%; (30 mins prior to challenge) 41%.

With `O=C(C[N+](=O)[O-])c1cccc(-c2ccccc2)c1C(=O)O` [Example 10, ω-nitro-3-phenylacetophenone-2-carboxylic acid], where the note is “0 mins prior to challenge”, the inhibition in vivo at 25 mg/kg was found to be 2% and the inhibition in vivo at 84 mg/kg was 23%. Moreover, under “30 mins prior to challenge”, the inhibition in vivo at 25 mg/kg is 11% and the inhibition in vivo at 84 mg/kg was found to be 21%.

For `COC(=O)c1ccccc1C(=O)C[N+](=O)[O-]` [Example 1, 2-methoxycarbonyl-ω-nitroacetophenone], the inhibition in vivo at 25 mg/kg runs as follows: (0 mins prior to challenge) 0%; (60 mins prior to challenge) 32%. Besides, the inhibition in vivo at 100 mg/kg (0 mins prior to challenge) amounted to 12% and the inhibition in vivo at 100 mg/kg (60 mins prior to challenge) stood at 23%.

For `CCOC(=O)c1cc(C)c(C)cc1C(=O)C[N+](=O)[O-]` [Example 4, 2-ethoxycarbonyl-4,5-dimethyl-ω-nitroacetophenone], where the note is “0 mins prior to challenge”, the inhibition in vivo at 25 mg/kg was found to be 12% and the inhibition in vivo at 100 mg/kg was 16%. For the setting “60 mins prior to challenge”, the inhibition in vivo at 25 mg/kg was 53% and the inhibition in vivo at 100 mg/kg came to 42%.

On to `CCOC(=O)c1ccccc1C(=O)C[N+](=O)[O-]` [Example 2, 2-ethoxycarbonyl-ω-nitroacetophenone], for which, for the setting “0 mins prior to challenge”, the inhibition in vivo at 25 mg/kg was found to be 22% and the inhibition in vivo at 100 mg/kg was found to be 34%. For the setting “60 mins prior to challenge”, the inhibition in vivo at 25 mg/kg was determined as 57% and the inhibition in vivo at 100 mg/kg worked out at 58%.

Regarding `COC(=O)c1cc(C)c(C)cc1C(=O)C[N+](=O)[O-]` [Example 3, 2-methoxycarbonyl-4,5-dimethyl-ω-nitroacetophenone], where the note is “0 mins prior to challenge”, the inhibition in vivo at 25 mg/kg turned out to be 22% and the inhibition in vivo at 100 mg/kg was found to be 34%. Further, where the note is “60 mins prior to challenge”, the inhibition in vivo at 25 mg/kg was found to be 51% and the inhibition in vivo at 100 mg/kg was 58%.

`CCCOC(=O)c1cc(C)c(C)cc1C(=O)C[N+](=O)[O-]` [Example 5, 2-^n propoxycarbonyl-4,5-dimethyl-ω-nitroacetophenone]: under “0 mins prior to challenge”, the inhibition in vivo at 25 mg/kg was determined as 7% and the inhibition in vivo at 100 mg/kg was 11%. Under “60 mins prior to challenge”, the inhibition in vivo at 25 mg/kg was 44% and the inhibition in vivo at 100 mg/kg stood at 54%.

On to `COC(=O)c1cccc(-c2ccccc2)c1C(=O)C[N+](=O)[O-]` [Example 7], for which, for the setting “0 mins prior to challenge”, the inhibition in vivo at 25 mg/kg is 8% and the inhibition in vivo at 100 mg/kg amounted to 14%. Also, where the note is “60 mins prior to challenge”, the inhibition in vivo at 25 mg/kg is -13% and the inhibition in vivo at 100 mg/kg is -2%.

As for `Cc1cc(C(=O)O)c(C(=O)C[N+](=O)[O-])cc1C` [Example 9, 4,5-dimethyl-ω-nitroacetophenone-2-carboxylic acid], for the setting “0 mins prior to challenge”, the inhibition in vivo at 25 mg/kg came to 33% and the inhibition in vivo at 100 mg/kg was determined as 57%. For the same compound, under “60 mins prior to challenge”, the inhibition in vivo at 25 mg/kg was 13% and the inhibition in vivo at 100 mg/kg came out at 32%.

In the case of `O=C(O)c1ccccc1C(=O)C[N+](=O)[O-]` [Example 8, ω-nitroacetophenone-2-carboxylic acid], where the note is “0 mins prior to challenge”, the inhibition in vivo at 25 mg/kg was 12% and the inhibition in vivo at 100 mg/kg was determined as 48%. Where the note is “30 mins prior to challenge”, the inhibition in vivo at 25 mg/kg was determined as 18% and the inhibition in vivo at 100 mg/kg turned out to be 37%.

As a reminder, the inhibition in vivo is the change of the read-out against control, counted positive when it falls.
